Source: patent US20240132484A1, “BROAD SPECTRUM ANTIVIRAL COMPOUNDS TARGETING THE SKI COMPLEX” (priority 2020, published 2024)

Test system: Influenza virus
Assay: organism not typed
Assay type: cell-based, influenza A virus
Conditions: for Flu titer (pfu/ml): A549 cells; for Flu titer (pfu/ml) / Influenza virus titer, 10 μM / Influenza virus titer, 50 μM: plaque assay; for Avg: 1-24-20; for Avg PFU/ml: average of first and second experiment; for Influenza virus titer, 10 μM / Influenza virus titer, 50 μM: upper part of table (FIG. 5 data)

SMILES | Flu titer (pfu/ml) (1 μM compound) | Flu titer (pfu/ml) (10 μM compound) | Flu titer (pfu/ml) (50 μM compound) | first experiment (10 μM screen) [PFU/ml] | second experiment (10 μM screen) [PFU/ml] | Avg (10 μM screen) [PFU/ml] | Avg PFU/ml (10 μM screen) [PFU/ml] | first experiment PFU/ml (50 μM screen) [PFU/ml] | second experiment PFU/ml (50 μM screen) [PFU/ml] | Avg (50 μM screen) [PFU/ml] | Avg PFU/ml (50 μM screen) [PFU/ml] | Influenza virus titer, 10 μM [PFU/virus/ml] | Influenza virus titer, 50 μM [PFU/virus/ml]
COCCO[C@H]1[C@H](NC(=O)C(C)C)c2ccccc2C12CCN(C(=O)Cn1nc(C)cc1C)CC2 (relative stereo) [Compound 27046321, N-[(2R*,3R*)-1′-[(3,5-dimethyl-1H-pyrazol-1-yl)acetyl]-2-(2-methoxyethoxy)-2,3-dihydrospiro[indene-1,4′-piperidin]-3-yl]-2-methylpropanamide] | 110000 | 74000 | 87000 |  |  |  |  |  |  |  |  |  | 
COc1ccc(CNCCc2ccccc2F)c(OCC(O)CN2CCN(C)CC2)c1 (stereo not shown) [Compound 18, 1-[2-({[2-(2-fluorophenyl)ethyl]amino}methyl)-5-methoxyphenoxy]-3-(4-methyl-1-piperazinyl)-2-propanol] |  |  |  | 2000 | 1100 | 1150 | 1550 | 1400 | 300 | 400 | 850 |  | 
COc1ccc(CNC2CCCC2)c(OCC(O)CN2CCN(C)CC2)c1 (stereo not shown) [Compound 18-1] |  |  |  | 60000 | 19000 |  | 39500 | 2200 | 1400 |  | 1800 | 60000 | 2200
COc1ccc(CNCCc2ccccc2C)c(OCC(O)CN2CCN(C)CC2)c1 (stereo not shown) [Compound 18-2] |  |  |  | 500 | 1900 |  | 1200 | 1700 | 100 |  | 900 | 500 | 1700
COc1ccc(CNC2Cc3ccccc3C2)c(OCC(O)CN2CCN(C)CC2)c1 (stereo not shown) [Compound 18-3] |  |  |  | 12000 | 1000 |  | 6500 | 1100 | 1700 |  | 1400 | 12000 | 1100
COc1ccc(CNCCc2ccccc2Cl)c(OCC(O)CN2CCN(C)CC2)c1 (stereo not shown) [Compound 18-4] |  |  |  | 7000 | 800 |  | 3900 | 1100 | 300 |  | 700 | 7000 | 1100
COc1ccc(CNCC2CCCCC2)c(OCC(O)CN2CCN(C)CC2)c1 (stereo not shown) [Compound 18-5] |  |  |  | 60000 | 500 |  | 30250 | 2100 | 400 |  | 1250 | 60000 | 2100
COc1ccc(CNCCc2ccccc2)c(OCC(O)CN2CCN(C)CC2)c1 (stereo not shown) [Compound 18-6] |  |  |  | 10000 | 500 |  | 5250 | 1300 | 300 |  | 800 | 10000 | 1300
COc1ccc(CNCCCn2ccnc2C)c(OCC(O)CN2CCN(C)CC2)c1 (stereo not shown) [Compound 18-7] |  |  |  | 240000 | 44000 |  | 142000 | 110000 | 31000 |  | 70500 | 240000 | 110000
COc1ccc(CNC2CCCCCCC2)c(OCC(O)CN2CCN(C)CC2)c1 (stereo not shown) [Compound 18-8] |  |  |  | 3000 | 700 |  | 1850 | 3800 | 200 |  | 2000 | 3000 | 38000
COc1ccc(CNCCc2cccnc2)c(OCC(O)CN2CCCCCCC2)c1 (stereo not shown) [Compound 18-9] |  |  |  | 200000 | 9000 |  | 104500 | 20000 | 2600 |  | 11300 | 200000 | 20000
COc1ccc(CNC2CCCCC2)c(OCC(O)CN2CCN(C)CC2)c1 (stereo not shown) [Compound 18-10] |  |  |  | 40000 | 2600 |  | 21300 | 16000 | 1900 |  | 8950 | 40000 | 16000
